Entries after “also recorded” stand apart in the source; their conditions may differ.
Tests used:
[1] = Mitigation assay of analogs at +30 min and +60 min after 8 Gy IR; settings: FIG. 20
Experimental: Fourteen analogs of Yel001 and Yel002, whose structures are shown in FIGS. 19A and 19B, are subject to tests in a mitigation assay at +30 min and +60 min after 8 Gy radiation (IR).

C3H mice [2] = experiment: Mitigation of radiation-induced lethality in C3H mice (8Gy, LD100/30); settings: 8Gy
Experimental: Radiomitigation studies were conduced by pre-treating C3H mice with the compounds of interest at as concentration of 75 mg/kg and at 24 hrs and 1 hr before an 8 Gy exposure. On a 5×24 mitigation treatment protocol mice were first lethally irradiated with 8 Gy and 24 hrs later received the first subcutaneous injection with the compound suspension with subsequent injections at 48, 72, 96, and 120 hrs. The concentration of the compound in the suspension was 75 mg/kg carrier with either 1N saline or phosphate buffer solution (PBS).
C3H mice in the mitigation experiment were irradiated with 8Gy and then injected with 75 mg/kg 1 hr post exposure and then again 25 hrs post exposure.

[3] = system: RS112 strain of S. cerevisiae; experiment: Classical DEL plating assay, radioprotection at 2000Gy irradiation; format: cell-based, Saccharomyces cerevisiae
Experimental: All DEL assays utilize the established methodology of “recombination” (deletion of the interruption segment and consequent end joining of the adjacent sequences) of a disrupted histidine gene that renders yeast cells exposed to radiation capable of growing on media lacking this amino acid. In the classical DEL assay radiation sensitive RS112 strain of S. cerevisiae is added to the compounds of interest suspended in complete media, incubated for 2 hrs, and irradiated at 2000Gy. The cells are then plated onto full (+13) and lacking histidine (−His) agar plates. After incubation the colonies are scored and recombination events are calculated. The efficacy of the compound is evaluated as a reduced fraction of DEL recombinations in comparison to that of irradiated controls without treatment. Radioprotectors decrease the frequency of such recombination frequencies after radiation exposure.
A plasmid with an internal fragment of the HIS3 gene, which is responsible for histidine synthesis in yeast, without which cells cannot survive in media lacking histidine, has been integrated at the HIS3 locus, yielding an integrative disruption of the HIS3 gene (Schiestl, R. H., et al., Genetics, 1988. 119(2): p. 237-47). […]

RS112 cells = experiment: DEL plating assay for mitigation of radiation damage (treatment after 2000Gy); format: cell-based, Saccharomyces cerevisiae
Experimental: The mitigation protocol is based on the same DEL assay principle of recombination of the disrupted HIS3 gene that renders the cells capable of synthesizing its own histidine following radiation exposure. To establish mitigation properties of the compounds in question, the classical DEL protocol is modified as follows: first the RS112 cells are irradiated with 2000Gy and then the treatments are administered at 0 min, 10 min, 20 min, 30 min, and 60 min, incubated for 2 hrs, and plated on +13 and −His agar plates. The efficacy of the compounds is scored the same way as in the classical DEL protocol. Yel1 and Yel2 analogues that are efficacious in the HTS and classical DEL assay are analyzed for mitigation activity using this modified DEL protocol.
Six confirmed hits were also tested for radioprotection with the compounds being presented to irradiated cells at different time points following irradiation exposure. The DEL Plating Assay was used with a radiation sensitive Saccharomyces cerevisiae RS112 strain.
The general DEL Assay is described above. In this example, DEL assay is a genetic construct in the Saccharomyces cerevisiae RS112 strain where a plasmid with an internal fragment of the HIS3 gene has been integrated at the HIS3 locus, yielding an integrative disruption of the HIS3 gene. […] The construct reverts to HIS3+ by recombination between the two his3 deletion alleles which is, in 99% of the cases, associated with the deletion of the entire 6 kilobasepairs of DNA comprising the integrated plasmid. DEL events are inducible with a variety of DNA-assaulting agents: radiation, smoking, UV exposure, 92% of the known carcinogens, etc.
RS112 cells irradiated with 2000Gy show an induction of the deletion frequencies (DEL events) and roughly a 90% killing.

mammalian cell lines = experiment: Therapy Bioluminescence Assay (survival following irradiation); format: cell-based; settings: data not shown
C3H mice [4] = experiment: Toxicity experiments in C3H mice; format: in vivo, mouse; settings: 150 mg/kg, 75 mg/kg and 5 mg/kg; 120 days following the injections
Experimental: Having seen no adverse effects of the chemicals alone on mammalian cell models we performed a preliminary toxicity study on a group of C3H mice. […] In a pilot reproductive toxicity study, 12, week old female mice were paired up with 6 week old male mice and checked daily for the presence of a characteristic “plug” in the female vaginal canal as an indication of mating. As soon as the mating has occurred, males were removed and the females were treated weekly with 75 mg/kg s.c. throughout the gestation period and until the pups were weaned off (8 week treatment course). After weaning, treatment of the offspring was initiated at the same 75 mg/kg s.c. weekly dose. Controls were injected s.c. on the same schedule with the carrier (1N saline). Five treated and five control females gave birth to the same average number of pups per litter (n=6) without any detectable toxicities to the other. 3 litters of each treated and control groups survived to continue the study. No pathologies, toxicities nor adverse effects were observed. There are no developmental or teratogenic deficiencies in mice, average weights (21 g) are the same in both groups also.

DBA/2 Mice = experiment: Radiation-induced leukemia model; format: in vivo, mouse
Experimental: DBA/2 Mice (15/group) were irradiated with ^60Co (3.5 Gy, 0.6 Gy/min) to induce leukemia. One group received no drug, another group of mice were injected s.c. with Yel001 or Yel002 (25 mg/kg) with 5 injections for 5 days. Leukemogenesis was monitored for 90 days. Blood was drawn at days −1, 21, 42, and 63 to monitor for leukemia every 21 days to monitor for leukemia development using WBCs and differentials. This leukemia model takes advantage of non-targeted radiation effects, which are important to the carcinogenic process. This model has a shorter latency period to gamma radiation-induced leukemia (latency to 50% leukemic population: 107 days) than other murine leukemia models such as CBA mouse (399 days: 50% leukemic population). DBA/2 mice were irradiated with 3.5 Gy (^60Co 0.60 Gy/min) and then injected intravenously with (5×10^6) FDC-P1 cells. Animals were then monitored 5×/weekly for 10 weeks-post-injection and then daily after 10 weeks-post-injection until leukemia development and/or euthanasia. After the animal has been determined to be leukemic using hematological parameters, it is euthanized and a necropsy is conducted to definitively determine a conclusive diagnosis of leukemia. Control animals not developing leukemia are assessed at 270 days post experiment initiation. At that time they are euthanized and necropsied.

[5] = system: yeast DEL tester strain RS112; experiment: DEL assay, UV radiation-induced damage; format: cell-based, Saccharomyces cerevisiae
Experimental: DEL tester strain was irradiated with 4000 J/m^2 in the ultraviolet range and treated with Yel001 or Yel002 at 60 minutes at the concentration of 15 uM.

DEL RS112 tester strain = experiment: DEL assay, damage by chemical carcinogen MMS; format: cell-based, Saccharomyces cerevisiae; settings: 15 uM, 1 hrs after exposure to MMS
Source text: A DEL assay, described above, is used for assessing mitigation of damage induced by chemical carcinogens by compounds of invention.
Tests in this example show administration of Yel001 and Yel002 confers reduction against chemical carcinogen Methyl methanesulfonate (MMS) in vitro.
Reduction of cytotoxicity and genotoxicity with Yel002 is p<0.007 and p<0.04 restively; p-values for Yel001 are 0.0007 (genotoxicity) and 0.1 for cytotoxicity.

Cc1sc(NC(=O)CN(Cc2ccco2)C(=O)c2ccccc2)c(C(N)=O)c1C [CJ010]
mitigation of IR damage [1]: consistently mitigates the IR damage
mitigation efficacy (C3H mice [2]; 75 mg/kg s.c. 5×24 protocol): significantly mitigated IR-induced damages and death
survival at 30 days (C3H mice [2]; 75 mg/kg s.c. at 24, 48, 72, 96, 120 hrs (5×24)): 75%

Cc1sc(NC(=O)CN(Cc2ccc(F)cc2)C(=O)c2ccccc2)c(C(N)=O)c1C [Yel001]
radioprotector characteristics (genotoxicity and cytotoxicity protection) [3]: radioprotector characteristics
reduction of DEL events (gene reversion frequency) (RS112 cells; compound added 0-60 min after 2000Gy, p<0.05): decreased DEL frequencies; also recorded: significant reduction of genetic instability
mitigation of radiation cytotoxicity (survival) (RS112 cells; compound added at time points after 2000Gy, significant only at 60 min): increased survival fractions; also recorded: mitigation of radiation cytotoxicity has been observed
survival following irradiation as compared to that of controls (mammalian cell lines): 130%
adverse physiological or behavioral effects (C3H mice [4]): did not show any adverse physiological nor behavioral adverse effects
first development of leukemia (DBA/2 Mice; 3.5 Gy, 25 mg/kg s.c., no drug also within 42 days): 42 days
mice exhibiting leukemia (DBA/2 Mice; Day 94, 3.5 Gy, 25 mg/kg s.c. 5 injections, irradiated controls 30%): 20%
leukemia frequency (DBA/2 Mice; Day 270, irradiated population 90%): 50%
latency to leukemia development (DBA/2 Mice; FIG. 17): increased latency to leukemia development
frequency of radiation induced and/or spontaneous cancer (DBA/2 Mice; FIG. 18): effective for reducing the frequency of radiation induced and spontaneous cancer
UV genotoxicity and cytotoxicity ([5]; 15 uM, P<0.05): reduces cell death and genotoxicity; also recorded: significantly reduces genotoxicity and cytotoxicity
survival ([5]; 4000 J/m^2 UV, 15 uM at 60 minutes, untreated 0.64%): 2.91%
genotoxicity and cytotoxicity by MMS (DEL RS112 tester strain): reduction in genotoxicity and cytotoxicity; also recorded: can be mitigated
mitigation efficacy (C3H mice [2]; 75 mg/kg 1.25 protocol): did show therapeutic benefit
mitigation efficacy (C3H mice [2]; 75 mg/kg 1.25 protocol, listed as Yel1): show activity
mice survived LD100/30 irradiation (C3H mice [2]; 75 mg/kg at 1 hr and 25 hrs post exposure, past 30 days, first small study): 67%
mitigation efficacy (C3H mice [2]; 75 mg/kg s.c. 5×24 protocol): did not exhibit significant efficacy
mitigation efficacy (C3H mice [2]; 75 mg/kg s.c. 5×24 protocol, listed as Yel1): also showed efficacy
percentage of survivors (C3H mice [2]; both protocols, 252 days post irradiation): 30%
animals still alive beyond 30 day window (C3H mice [2]; both protocols, +292 days): 30%

Reference: patent US9045474B2, “Compounds and compositions for mitigating tissue damage and lethality” (The Regents of the University of California, priority 2010, dated 2015)
